What all share (experiment): combination Emax (second highest fraction inhibited in the dose matrix, 72 h); higher = more inhibition; extreme values may be limits of the assay
One assay relates to EW-11 (Ewing's Sarcoma). The gist of the method: (§1)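 After 24 hours at 37°C and 5% CO2 in 1536-well plates, cells in DMEM/F12 or RPMI plus 10% FBS received two-drug dose matrices for 72 hours. Viability came from CellTiter-Glo 2.0 luminescence and was scaled as inhibition, anchored at 0 by vehicle wells and at 1 by blank wells. Combination Emax is taken as the second-highest inhibition in the matrix, and Bliss excess as the observed combination effect less EA + EB − EA·EB, with EA and EB the single-agent effects.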

Assay [1] has as its system HuCCT1 (Biliary Tract Carcinoma). In outline:
as §1

Assay [2] has as its system KYAE-1 (Esophageal Adenocarcinoma). The gist of the method:
as §1

The subject of another assay is LOXIMVI (Melanoma). In outline: as §1
The subject of a further assay is MPP-89 (Mesothelioma). In outline: as §1
In assay [3] the test system is SNU-16 (Gastric Carcinoma). In outline:
as §1

Assay [4] relates to SW1710 (Bladder Carcinoma). In outline: as §1
For assay [5], the system named is WSU-NHL (B-Cell Non-Hodgkin's Lymphoma). The gist of the method: as §1
Assay [6] has as its system YAPC (Pancreatic Carcinoma). In outline:
as §1

Consider `CN(CCO)CC[C@H](CSc1ccccc1)Nc1ccc(S(=O)(=O)NC(=O)c2ccc(N3CCC([C@@H](O)c4ccccc4-c4ccc(Cl)cc4)CC3)cc2)cc1S(=O)(=O)C(F)(F)F` [AZD4320] + CC(=O)O[C@H]1C(=O)[C@@]2(C)[C@H]([C@H](OC(=O)c3ccccc3)[C@]3(O)C[C@H](OC(=O)[C@H](O)[C@@H](NC(=O)c4ccccc4)c4ccccc4)C(C)=C1C3(C)C)[C@]1(OC(C)=O)CO[C@@H]1C[C@@H]2O [Paclitaxel] (first compound max 1 µM, 7x7, partner max 3 µM), for which the “combination Emax” value in the assay on EW-11 (Ewing's Sarcoma) was 0.927; in assay [1] it was 0.671; in assay [2] it was 0.587; in the assay on LOXIMVI (Melanoma) it was 0.955; in the assay on MPP-89 (Mesothelioma), 0.983; in [3], 1. In addition, the “combination Emax” value is 0.98 in [4], 1 in assay [5] and 0.395 in [6].

With `CN(CCO)CC[C@H](CSc1ccccc1)Nc1ccc(S(=O)(=O)NC(=O)c2ccc(N3CCC([C@@H](O)c4ccccc4-c4ccc(Cl)cc4)CC3)cc2)cc1S(=O)(=O)C(F)(F)F` [AZD4320] + Nc1ccn([C@@H]2O[C@H](CO)[C@@H](O)C2(F)F)c(=O)n1 [Gemcitabine] (first compound max 1 µM, 7x7, partner max 0.3 µM), the “combination Emax” value in the assay with EW-11 (Ewing's Sarcoma) was determined as 0.92; in [1] it was 0.476; in assay [2], 0.32; with LOXIMVI (Melanoma) it was 0.925; in the assay with MPP-89 (Mesothelioma), 0.78; in [3], 0.934. The figures for the “combination Emax” value in assay [4], in [5] and in [6] were 0.51, 0.995 and 0.535, respectively.

As to `N#Cc1cnc(Nc2cc(NC[C@H]3CNCCO3)c(C(F)(F)F)cn2)cn1` [SRA737] + C=CCn1c(=O)c2cnc(Nc3ccc(N4CCN(C)CC4)cc3)nc2n1-c1cccc(C(C)(C)O)n1 [AZD1775] (first compound max 10 µM, partner max 1 µM), the “combination Emax” value with EW-11 (Ewing's Sarcoma) turned out to be 0.603; in assay [1], 0.812; in [2], 0.114; in the assay on LOXIMVI (Melanoma), 0.562; with MPP-89 (Mesothelioma) it was 0.661; in assay [3], 0.995. The “combination Emax” value in assay [4] came to 0.644; in assay [5], 0.989; in assay [6], 0.495.

For the compound `N#Cc1cnc(Nc2cc(NC[C@H]3CNCCO3)c(C(F)(F)F)cn2)cn1` [SRA737] + CCc1c2c(nc3ccc(O)cc13)-c1cc3c(c(=O)n1C2)COC(=O)[C@]3(O)CC [SN-38] (first compound max 10 µM, 7x7, partner max 0.3 µM), the “combination Emax” value in the assay on EW-11 (Ewing's Sarcoma) is 0.682; in assay [1] it was 0.847; in assay [2], 0.313; in the assay on LOXIMVI (Melanoma), 0.859; in the assay with MPP-89 (Mesothelioma), 0.73; in assay [3], 0.995. Also, the “combination Emax” value in [4] stood at 0.676; in assay [5], 0.994; in [6], 0.696.

Consider `N#Cc1cnc(Nc2cc(NC[C@H]3CNCCO3)c(C(F)(F)F)cn2)cn1` [SRA737] + Nc1ccn([C@@H]2O[C@H](CO)[C@@H](O)C2(F)F)c(=O)n1 [Gemcitabine] (first compound max 10 µM, 7x7, partner max 0.3 µM), for which the “combination Emax” value with EW-11 (Ewing's Sarcoma) was 0.854; in assay [1], 0.792; in [2] it was 0.19; in the assay with LOXIMVI (Melanoma) it was 0.881; with MPP-89 (Mesothelioma), 0.656; in assay [3] it was 1. Besides, the “combination Emax” value in [4] was 0.676; in assay [5] it was 0.993; in [6], 0.655.

The values above are taken from the supplement of paper PMC11061612.
